From ChEMBL document CHEMBL1201862, “PubChem BioAssay data set” (2004) come the findings set out here.

The structures appear in SMILES notation.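 Test compounds were applied to cells in 96-well plates for 48 hours at 5 doses. Here, GI50 denotes the concentration required for 50% inhibition of growth.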 Activity calls are given as the source filed them. Cut-off read from the data, not from the text of the source: active = GI50 up to about 1.1 µM and inactive = higher. Bounds are passed on as bounds.

Some test systems named below: A498; A549; ACHN; CAKI-1; HCC 2998; HCT-116; HCT-15; KM12; Malme-3M; NCI-H226; NCI-H23; NCI-H460; NCI/ADR-RES; OVCAR-3; OVCAR-4; OVCAR-5; PC-3; U-251; UO-31; UACC-257.
Common to all, as to assay: NCI tumour cell line growth inhibition, 48 h

As to `CC1(C)S[C@@H]2[C@H](N3C(=O)c4ccccc4C3=O)CN2[C@H]1NC(=O)N[C@@H]1N2C[C@@H](N3C(=O)c4ccccc4C3=O)[C@H]2SC1(C)C`, the GI50 in the experiment on A498 is > 100 µM (inactive); in the experiment on A549, 73.3 µM (inactive); in the experiment on ACHN, > 100 µM (inactive); with CAKI-1 it was > 100 µM (inactive); with HCC 2998, > 100 µM (inactive); with HCT-116, > 100 µM (inactive). The GI50 in the experiment with HCT-15 is more than 100 µM; in the experiment on KM12, > 100 µM (inactive); with Malme-3M, > 100 µM (inactive); in the experiment with NCI-H226, > 100 µM (inactive); in the experiment on NCI-H23 it was > 100 µM (inactive); with NCI-H460 it was > 100 µM (inactive). In addition, the GI50 was > 100 µM (inactive) in the experiment with NCI/ADR-RES; > 100 µM (inactive) in the experiment on OVCAR-3; > 100 µM (inactive) in the experiment with OVCAR-4; > 100 µM (inactive) in the experiment with OVCAR-5; > 100 µM (inactive) with PC-3; 27 µM (inactive) with U-251. In addition, the GI50 in the experiment with UO-31 is > 100 µM (inactive).
Turning to `Cc1cc(-c2ccc(Cl)cc2)c(C#N)c(=S)n1C1OC(CO)C(O)C(O)C1O` (configuration not stated), the GI50 in the experiment on A498, in the experiment with A549, in the experiment on ACHN, in the experiment on CAKI-1, in the experiment on HCC 2998 and with HCT-116 was > 100 µM (inactive) each time. Further, the GI50 was more than 100 µM with HCT-15; > 100 µM (inactive) in the experiment on KM12; > 100 µM (inactive) in the experiment on Malme-3M; > 100 µM (inactive) in the experiment on NCI-H226; > 100 µM (inactive) with NCI-H23; > 100 µM (inactive) in the experiment on NCI-H460. In addition, the GI50 with NCI/ADR-RES, with OVCAR-3, in the experiment with OVCAR-4, in the experiment on OVCAR-5, in the experiment with PC-3 and with UACC-257 was > 100 µM (inactive) throughout.
For `COC(=O)C1=C(OC(=O)c2ccccc2)C(C(=O)OC)[C@@]2(O)[C@@H](C(=O)OC)[C@H](C)C[C@@H]1[C@@H]2C(=O)OC` (some centres not stated), the GI50 with A498 is 26.4 µM (inactive); with A549, 19.5 µM (inactive); in the experiment with ACHN it was 31.6 µM (inactive); in the experiment with CAKI-1, 42.2 µM (inactive); in the experiment on HCC 2998 it was 25 µM (inactive); in the experiment with HCT-116, 36 µM (inactive). The GI50 is 58.1 µM in the experiment on HCT-15; 28.4 µM (inactive) in the experiment with KM12; 26.9 µM (inactive) with Malme-3M; 45.5 µM (inactive) in the experiment with NCI-H226; 30.8 µM (inactive) with NCI-H23; 25.3 µM (inactive) in the experiment with NCI-H460. The GI50 with NCI/ADR-RES was 19 µM (inactive); in the experiment on OVCAR-3 it was 46.2 µM (inactive); in the experiment on OVCAR-4, 31.6 µM (inactive); in the experiment with OVCAR-5, 47.2 µM (inactive); with PC-3 it was 37.2 µM (inactive); in the experiment on U-251, 35.4 µM (inactive). For the same compound, the GI50 in the experiment on UACC-257 was 33.3 µM (inactive); in the experiment on UO-31 it was 29.5 µM (inactive).
For `CC(=O)OC(=C(C#N)C#N)c1nccnc1C(C)=O`, the GI50 in the experiment on A498 is > 20 µM (inactive); in the experiment with A549, 11.9 µM (inactive); with ACHN it was > 20 µM (inactive); in the experiment on CAKI-1, > 20 µM (inactive); in the experiment on HCC 2998 it was > 20 µM (inactive); with HCT-15 it was more than 20 µM. Moreover, the GI50 in the experiment with KM12 is 4.98 µM (inactive); with Malme-3M, 9.29 µM (inactive); in the experiment with NCI-H226, 6.01 µM (inactive); with NCI-H23, > 20 µM (inactive); in the experiment with NCI-H460, 7.83 µM (inactive); in the experiment with NCI/ADR-RES it was > 20 µM (inactive). Also, the GI50 is 14.6 µM (inactive) in the experiment with OVCAR-3; > 20 µM (inactive) in the experiment on OVCAR-4; > 20 µM (inactive) in the experiment on OVCAR-5; > 20 µM (inactive) with PC-3; 6.07 µM (inactive) with U-251; > 20 µM (inactive) in the experiment on UACC-257. For the same compound, the GI50 in the experiment on UO-31 is > 20 µM (inactive).
On to `C=CCCCC1(C)CCCCNC1=O` (configuration not stated), for which the GI50 with A498, with A549, in the experiment on ACHN, in the experiment with CAKI-1, in the experiment on HCC 2998 and in the experiment with HCT-116 was > 10 µM (inactive) each time. Besides, the GI50 was more than 10 µM in the experiment with HCT-15; > 10 µM (inactive) with KM12; > 10 µM (inactive) in the experiment with Malme-3M; > 10 µM (inactive) with NCI-H226; > 10 µM (inactive) with NCI-H23; > 10 µM (inactive) with NCI-H460. Besides, the GI50 in the experiment on NCI/ADR-RES, with OVCAR-3, with OVCAR-4, in the experiment on OVCAR-5, in the experiment on PC-3 and in the experiment on U-251 was > 10 µM (inactive) in each case. The GI50 with UACC-257 and with UO-31 was > 10 µM (inactive) throughout.
For `O=Cc1ccc(-c2cc(C=O)c(-c3cccs3)[nH]2)s1`, the GI50 with A498 was 2.6 µM (inactive); with A549 it was 24.8 µM (inactive); in the experiment with ACHN, 41.4 µM (inactive); in the experiment with CAKI-1 it was 9.4 µM (inactive); with HCC 2998, 16.6 µM (inactive); with HCT-116 it was 22.8 µM (inactive). Further, the GI50 in the experiment on HCT-15 is 24.8 µM; in the experiment with KM12, 25.8 µM (inactive); with Malme-3M, 46.7 µM (inactive); in the experiment on NCI-H226, 4.76 µM (inactive); in the experiment with NCI-H23, 37 µM (inactive); with NCI-H460, 25.8 µM (inactive). The GI50 was 26.7 µM (inactive) in the experiment on NCI/ADR-RES; 18.5 µM (inactive) in the experiment with OVCAR-3; 26 µM (inactive) in the experiment on OVCAR-4; > 75 µM (inactive) in the experiment with OVCAR-5; 35.6 µM (inactive) with PC-3; 18.7 µM (inactive) in the experiment with U-251. The values for the GI50 with UACC-257 and in the experiment on UO-31 were 48 µM (inactive) and 26.6 µM (inactive), respectively.
In the case of `CC(C)(C)OC(=O)CN1CCNCCN(CC(=O)OC(C)(C)C)CC1`, the GI50 with A498 was > 100 µM (inactive); in the experiment on A549 it was > 100 µM (inactive); in the experiment with ACHN, > 100 µM (inactive); with CAKI-1, > 100 µM (inactive); in the experiment on HCC 2998, 40.7 µM (inactive); with HCT-116, > 100 µM (inactive). Moreover, the GI50 with HCT-15 is more than 100 µM; with KM12 it was > 100 µM (inactive); with Malme-3M, 0.731 µM (active); in the experiment with NCI-H226, > 100 µM (inactive); with NCI-H460, > 100 µM (inactive); in the experiment with NCI/ADR-RES it was > 100 µM (inactive). Further, the GI50 with OVCAR-3, with OVCAR-4, in the experiment with OVCAR-5, with PC-3, in the experiment on UACC-257 and in the experiment with UO-31 was > 100 µM (inactive) in each case.
Turning to `Cc1cc(C)c(C#N)c(SC(=S)NC(=O)c2ccccc2)n1`, the GI50 in the experiment on A498, in the experiment on A549, with ACHN, with CAKI-1, in the experiment on HCC 2998 and in the experiment with HCT-116 was > 100 µM (inactive) in each case. The GI50 is more than 100 µM in the experiment with HCT-15; > 100 µM (inactive) in the experiment with KM12; > 100 µM (inactive) in the experiment on Malme-3M; > 100 µM (inactive) in the experiment with NCI-H226; > 100 µM (inactive) in the experiment with NCI-H23; > 100 µM (inactive) in the experiment with NCI-H460. In addition, the GI50 with NCI/ADR-RES, in the experiment with OVCAR-4, with OVCAR-5, with PC-3, with U-251 and in the experiment with UACC-257 was > 100 µM (inactive) in each case. In the experiment with UO-31, the GI50 was > 100 µM (inactive).
Consider `O=C1c2scc(-c3ccc(F)cc3)c2-n2cccc21`, for which the GI50 in the experiment with A498 is 1.47 µM (inactive); in the experiment on A549, 56.5 µM (inactive); in the experiment on ACHN, 39.7 µM (inactive); with CAKI-1, 10.3 µM (inactive); in the experiment with HCC 2998, 23.5 µM (inactive); in the experiment on HCT-116 it was 18.2 µM (inactive). Moreover, the GI50 is 32.1 µM with HCT-15; 43 µM (inactive) with KM12; 52.1 µM (inactive) with Malme-3M; 28.1 µM (inactive) in the experiment with NCI-H226; 28 µM (inactive) in the experiment on NCI-H460; 33 µM (inactive) with NCI/ADR-RES. The GI50 is 54.1 µM (inactive) in the experiment on OVCAR-3; 39.4 µM (inactive) with OVCAR-4; > 100 µM (inactive) in the experiment on OVCAR-5; 29.9 µM (inactive) with PC-3; 15.7 µM (inactive) in the experiment on U-251; 71 µM (inactive) with UACC-257. For the same compound, in the experiment with UO-31, the GI50 is 8.99 µM (inactive).
On to `NC(=O)C[C@H](NC(=O)C1(NC(=O)[C@H](Cc2ccc(CP(=O)(O)O)cc2)NC(=O)C(=O)O)CCCCC1)C(=O)NCCCc1cccc2ccccc12`, for which the GI50 in the experiment on A498, in the experiment on A549, with ACHN, with CAKI-1, with HCC 2998 and in the experiment on HCT-116 was > 10 µM (inactive) throughout. The GI50 is more than 10 µM in the experiment with HCT-15; > 10 µM (inactive) in the experiment with KM12; > 10 µM (inactive) with Malme-3M; 7.45 µM (inactive) in the experiment on NCI-H226; > 10 µM (inactive) with NCI-H23; > 10 µM (inactive) in the experiment with NCI-H460. Moreover, the GI50 with NCI/ADR-RES, with OVCAR-3, with OVCAR-4, in the experiment with OVCAR-5, in the experiment on PC-3 and with U-251 was > 10 µM (inactive) in each case. Further, the GI50 with UACC-257 and in the experiment on UO-31 was > 10 µM (inactive) throughout.
